Assay results from patent US8450324B2, “Crystalline base of trans-1-((1R,3S)-6-chloro-3-phenylindan-1-yl)-3,3-dimethylpiperazine” (H. Lunbeck A/S, priority 2005, dated 2013).

Assays:
dopamine D1 receptors = dopamine D1 receptors (Homo sapiens, UniProt P21728); settings: as described in PCT/DK04/000546; cited from earlier work
alfa1 adrenoceptors = settings: as described in PCT/DK04/000546; cited from earlier work
[1] = target: serotonin 5-HT2a receptors (Homo sapiens, UniProt P28223); settings: as described in PCT/DK04/000546; cited from earlier work
CYP2D6 = CYP2D6 (Homo sapiens, UniProt P10635); settings: as described in PCT/DK04/000546; cited from earlier work
[2] = test system: pigs sensitized to haloperidol; test: dystonia in pigs sensitized to haloperidol; format: in vivo
QT interval = settings: rabbit model; as described in PCT/DK04/000546; cited from earlier work
DA D2 receptors = DA D2 receptors (Homo sapiens, UniProt P14416); settings: as described in PCT/DK04/000546; cited from earlier work
[3] = target: dopamine (DA) D1 receptors (Homo sapiens, UniProt P21728); settings: as described in PCT/DK04/000546; cited from earlier work
dopamine D2 receptors = dopamine D2 receptors (Homo sapiens, UniProt P14416); settings: as described in PCT/DK04/000546; cited from earlier work
dopamine D2 receptors, sequence (P14416 whole entry): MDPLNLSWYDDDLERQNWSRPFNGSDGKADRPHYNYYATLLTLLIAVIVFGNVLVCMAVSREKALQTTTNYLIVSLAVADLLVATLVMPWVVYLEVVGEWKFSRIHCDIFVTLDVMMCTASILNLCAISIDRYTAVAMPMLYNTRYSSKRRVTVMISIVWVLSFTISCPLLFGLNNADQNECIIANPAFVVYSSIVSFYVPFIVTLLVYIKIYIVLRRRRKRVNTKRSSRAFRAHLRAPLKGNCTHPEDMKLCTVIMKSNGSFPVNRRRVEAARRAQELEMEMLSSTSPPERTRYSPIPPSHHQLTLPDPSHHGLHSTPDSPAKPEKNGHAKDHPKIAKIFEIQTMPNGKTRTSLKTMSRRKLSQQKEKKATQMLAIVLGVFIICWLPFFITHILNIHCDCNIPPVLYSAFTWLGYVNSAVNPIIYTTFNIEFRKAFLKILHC

serotonin 5-HT2a receptors, sequence (P28223 whole entry): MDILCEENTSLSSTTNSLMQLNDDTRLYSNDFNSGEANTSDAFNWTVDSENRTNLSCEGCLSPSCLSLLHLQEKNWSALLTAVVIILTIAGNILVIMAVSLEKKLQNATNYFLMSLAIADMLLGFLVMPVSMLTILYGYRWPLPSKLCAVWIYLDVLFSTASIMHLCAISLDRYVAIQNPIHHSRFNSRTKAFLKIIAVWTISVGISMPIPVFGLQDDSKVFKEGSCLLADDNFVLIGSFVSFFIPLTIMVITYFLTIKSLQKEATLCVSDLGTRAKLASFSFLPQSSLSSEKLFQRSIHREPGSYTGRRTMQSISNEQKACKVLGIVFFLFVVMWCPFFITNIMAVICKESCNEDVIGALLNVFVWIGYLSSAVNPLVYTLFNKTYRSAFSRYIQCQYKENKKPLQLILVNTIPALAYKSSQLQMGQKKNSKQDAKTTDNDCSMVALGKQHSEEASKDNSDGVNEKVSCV
DA D2 receptors, sequence (P14416 whole entry): as the sequence (P14416 whole entry) above
CYP2D6, sequence (P10635 whole entry): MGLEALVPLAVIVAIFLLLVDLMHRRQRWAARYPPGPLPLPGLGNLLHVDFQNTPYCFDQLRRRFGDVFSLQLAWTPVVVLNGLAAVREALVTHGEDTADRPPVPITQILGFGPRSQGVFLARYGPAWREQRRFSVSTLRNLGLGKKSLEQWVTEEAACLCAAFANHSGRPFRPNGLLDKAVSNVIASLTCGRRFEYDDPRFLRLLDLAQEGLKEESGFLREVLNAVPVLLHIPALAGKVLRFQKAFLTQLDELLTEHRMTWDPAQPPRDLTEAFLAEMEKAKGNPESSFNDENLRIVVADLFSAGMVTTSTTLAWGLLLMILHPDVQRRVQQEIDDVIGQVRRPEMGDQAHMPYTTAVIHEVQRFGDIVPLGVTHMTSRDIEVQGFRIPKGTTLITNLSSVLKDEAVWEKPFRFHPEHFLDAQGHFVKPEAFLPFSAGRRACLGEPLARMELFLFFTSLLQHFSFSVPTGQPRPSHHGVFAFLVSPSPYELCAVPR
dopamine D1 receptors, sequence (P21728 whole entry): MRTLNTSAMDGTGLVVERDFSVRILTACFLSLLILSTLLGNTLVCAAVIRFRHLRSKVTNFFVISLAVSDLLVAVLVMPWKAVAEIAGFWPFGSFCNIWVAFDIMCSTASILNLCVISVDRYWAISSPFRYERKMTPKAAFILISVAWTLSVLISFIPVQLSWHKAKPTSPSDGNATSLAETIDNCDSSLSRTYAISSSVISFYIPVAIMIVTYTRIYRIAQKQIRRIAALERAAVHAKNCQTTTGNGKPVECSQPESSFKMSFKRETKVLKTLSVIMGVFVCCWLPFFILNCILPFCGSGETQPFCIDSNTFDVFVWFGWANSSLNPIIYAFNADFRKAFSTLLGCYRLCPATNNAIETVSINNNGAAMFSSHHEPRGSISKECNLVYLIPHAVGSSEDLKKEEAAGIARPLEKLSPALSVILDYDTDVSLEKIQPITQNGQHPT
dopamine (DA) D1 receptors, sequence (P21728 whole entry): as above

SMILES: CC1(C)CN([C@@H]2C[C@@H](c3ccccc3)c3ccc(Cl)cc32)CCN1 [Compound I, trans-1-((1R,3S)-6-chloro-3-phenylindan-1-yl)-3,3-dimethylpiperazine]
- functional activity at dopamine D1 receptors (dopamine D1 receptors): antagonist
- affinity for alfa1 adrenoceptors (alfa1 adrenoceptors): high affinity
- functional activity at serotonin 5-HT2a receptors [1]: antagonist
- inhibition of CYP2D6 (CYP2D6): relatively weak inhibitor
- induction of dystonia (EPS liability) [2]: did not induce dystonia
- effect on the QT interval (QT interval): relatively low effect
- affinity for DA D2 receptors (DA D2 receptors): high affinity
- affinity for dopamine (DA) D1 receptors [3]: high affinity
- functional activity at dopamine D2 receptors (dopamine D2 receptors): antagonist
